A value given as a limit tells only on which side of the number the result lay.

This test concerns the target Cbl-b (Homo sapiens (Human), UniProt Q13191). Briefly: Cbl-b LCK Ub TR-FRET assay (Cbl-b Lck HTRF). Format: biochemical. To be noted: for IC50: Cbl-b LCK Ub TR-FRET; for fold-selectivity (Cbl-b over C-cbl): ratio C-cbl Lck HTRF IC50 / Cbl-b Lck HTRF IC50. The protocol:
6 μL of detection mixture was added to all wells and briefly centrifuged before incubating for 20 min at room temperature. […] IC50 was generated using no LCK as the low control and DMSO as the high control.

Chain of Cbl-b (Q13191 40-426): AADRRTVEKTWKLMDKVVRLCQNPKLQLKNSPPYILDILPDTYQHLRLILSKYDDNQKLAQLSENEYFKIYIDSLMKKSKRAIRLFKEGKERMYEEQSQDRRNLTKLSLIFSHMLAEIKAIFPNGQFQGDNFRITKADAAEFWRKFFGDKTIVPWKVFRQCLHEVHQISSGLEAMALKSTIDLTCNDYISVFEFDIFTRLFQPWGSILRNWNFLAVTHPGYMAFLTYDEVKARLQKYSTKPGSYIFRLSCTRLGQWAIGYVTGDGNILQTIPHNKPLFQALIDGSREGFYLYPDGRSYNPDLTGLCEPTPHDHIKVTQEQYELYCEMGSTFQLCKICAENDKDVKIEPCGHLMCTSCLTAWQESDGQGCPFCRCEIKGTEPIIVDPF

For orientation: IC50 means the midpoint of a concentration-inhibition curve. Low readings indicate greater potency, high ones weaker potency. As to `CO[C@@](c1cccc(N2Cc3c(cc(CNC4(C)CCC4)cc3C(F)(F)F)C2=O)c1)(c1nncn1C)C1CCC1` (single isomer, unassigned) [Compound 118], the IC50 is at least 20000 nM and the “fold-selectivity (Cbl-b over C-cbl)” value is on record as 1.0x. The compound `Cn1cnnc1[C@@H](C[C@H]1COCCO1)c1cccc(N2Cc3c(cc(CNC4(C)CCC4)cc3C(F)(F)F)C2=O)c1` (single isomer, unassigned) [Compound 295, 2-(3-((S)-2-((S)-1,4-dioxan-2-yl)-1-(4-methyl-4H-1,2,4-triazol-3-yl)ethyl)phenyl)-6-(((1-methylcyclobutyl)amino)methyl)-4-(trifluoromethyl)isoindolin-1-one] displayed a 50% inhibitory concentration (IC50) of at least 20000 nM. Still for that read-out and setting: then `Cn1cnnc1[C@H](c1cccc(N2Cc3c(cc(CNC4(C)CCC4)cc3C(F)(F)F)C2=O)c1)[C@H]1C[C@H](C)C1` (single isomer, unassigned) [Compound 376], with 55 nM.

`CC1(NCc2cc3c(c(C(F)(F)F)c2)CN(c2cccc([C@@H](C4COC4)n4ccnn4)c2)C3=O)CCC1` (single isomer, unassigned) [Compound 436, (R)-6-(((1-methylcyclobutyl)amino)methyl)-2-(3-(oxetan-3-yl(1H-1,2,3-triazol-1-yl)methyl)phenyl)-4-(trifluoromethyl)isoindolin-1-one] returned an IC50 (Example 121) of 570 nM. For the compound `Cn1cnnc1[C@]1(c2cc(NC3CCCCC3)nc(N3Cc4c(cc(CNC5(C)CCC5)cc4C(F)(F)F)C3=O)c2)C[C@H](C)C1` [Compound 51, 2-(6-(cyclohexylamino)-4-((1s,3s)-3-methyl-1-(4-methyl-4H-1,2,4-triazol-3-yl)cyclobutyl)pyridin-2-yl)-6-(((1-methylcyclobutyl)amino)methyl)-4-(trifluoromethyl)isoindolin-1-one], the IC50 was 38 nM and the “fold-selectivity (Cbl-b over C-cbl)” value is given as “(1.6x)”. The matching figures for `Cn1cnnc1[C@]1(c2cc(OC3CCCC3)nc(N3Cc4c(cc(CNC5(C)CCC5)cc4C(F)(F)F)C3=O)c2)C[C@@H](C)C1` [Compound 55, 2-(6-(cyclopentyloxy)-4-((1r,3r)-3-methyl-1-(4-methyl-4H-1,2,4-triazol-3-yl)cyclobutyl)pyridin-2-yl)-6-(((1-methylcyclobutyl)amino)methyl)-4-(trifluoromethyl)isoindolin-1-one]: 6.7 nM and “(1.4x)”. With `CCNc1cc(C2(c3nncn3C)CC(F)(F)C2)cc(N2Cc3c(cc(CNC4(C)CCC4)cc3C(F)(F)F)C2=O)n1` [Compound 62, 2-(4-(3,3-difluoro-1-(4-methyl-4H-1,2,4-triazol-3-yl)cyclobutyl)-6-(ethylamino)pyridin-2-yl)-6-(((1-methylcyclobutyl)amino)methyl)-4-(trifluoromethyl)isoindolin-1-one], 5.5 nM corresponded to half-maximal inhibition (IC50). On to `CC(=O)N1CC(c2cccc(N3Cc4c(cc(CNC5(C)CCC5)cc4C(F)(F)F)C3=O)c2)(c2nncn2C)C1` [Compound 112, 2-(3-(1-acetyl-3-(4-methyl-4H-1,2,4-triazol-3-yl)azetidin-3-yl)phenyl)-6-(((1-methylcyclobutyl)amino)methyl)-4-(trifluoromethyl)isoindolin-1-one], for which the IC50 is at least 20000 nM and the “fold-selectivity (Cbl-b over C-cbl)” value is given as 1.0x.

(Values after patent publication US12187709B2 (Genentech, Inc., priority 2021, dated 2025).)
